One experiment has as its system caspase-3. As to the kind of experiment: caspase-3 activity in CHO culture treated with z-VAD-fmk. Format: cell-based, Chinese hamster. The note with it: z-VAD-fmk added to the culture at 100 uM, from 48 hours, every 24 hours. How it is done: (§1) FIGS. 9-10 show assay results of CHO cells seeded in 60 mm dishes and exposed to caspase inhibitor, z-VAD-fmk (added to the cell culture at 100 micromolar concentration, 48 hours after seeding). The z-VAD-fmk inhibitor was added to the culture every 24 hours thereafter. Samples were taken every day and analyzed for caspase-3 activity (FIG. 9) and the % viable cells (FIG. 10).
(§2) CHO (dhfr+) cells grown in suspension were seeded at 1 million cells/ml in 60 mm tissue culture dishes. The cell culture media was a serum-free DMEM/Ham F-12 based medium containing recombinant human insulin and trace elements. Viability of the culture on day 0 was 96%. Two plates were analyzed each day for viability by Trypan Blue exclusion and by annexin/PI binding (Clontech) and for viable cell density. The experiment was carried out for 10 days. A chemical inhibitor of caspases, z-VAD-fmk (Enzyme Systems Products) was dissolved in DMSO to make a 100 mM (1000×) stock and 4 ul was added to a 60 mm dish containing 4 ml of culture. The inhibitor was added 48 hours after the start of the experiment (prior to the onset of apoptosis) and a new aliquot of the z-VAD-fmk inhibitor was added every 24 hours. Controls were cultures without any addition and cultures with the addition of DMSO only.

In experiment [1] the test system is serum-free culture of CHO cells. The following applies: Goswami et al. 1999; cited from earlier work.
For experiment [2], the system named is CHO (dhfr+) cells. As to the kind of experiment: viability/apoptosis of CHO culture in 60 mm dishes with z-VAD-fmk (Trypan Blue exclusion, annexin/PI). Format: cell-based, Chinese hamster. How it is done: as §1, §2
The test system of a further experiment is NSO myeloma cells. The following applies: overexpression in NSO myeloma cells; Murray et al. 1996; cited from earlier work.
The next experiment has as its system different cell lines. The note with it: under cell-culture conditions; other investigators; cited from earlier work.
For experiment [3], the system named is CHO (dhfr+) cells. As to the kind of experiment: effect of p35 expression on viability in 2 liter bioreactors. Format: cell-based, Chinese hamster. The note with it: p35 expressed in CHO cells vs cpc vector control, 2 liter bioreactor.

Residues, ends and D or L forms follow the SMILES beside them. *: point of attachment. Cbz = O=C(OCc1ccccc1)*; CH2F = FC*

For the molecule `COC(=O)C[C@H](NC(=O)[C@H](C)NC(=O)[C@@H](NC(=O)OCc1ccccc1)C(C)C)C(=O)CF` [z-VAD-fmk] (Cbz-Val-Ala-Asp(OMe)-CH2F), the caspase-3 activity entry in the experiment with caspase-3 is listed as “inhibition of caspase-3 activity”. In experiment [1], the “life of the culture” value is “unable to substantially extend the life”. The “apoptosis in cell cultures” value with CHO (dhfr+) cells [2] (added at a concentration of about 100 micromolar) is “can inhibit apoptosis”. Besides, the cell viability result with CHO (dhfr+) cells [2] (z-VAD-fmk added to the culture at 100 uM, from 48 hours, every 24 hours) is given as “prolongation of cell viability”.

Take “bcl-2: anti-apoptotic gene overexpressed in cultured cells”: in the experiment on NSO myeloma cells, the “decline phase characteristics of the cultured cells” value is given as “failed to affect the decline phase characteristics”. Further, the “prevention of cell death” value in the experiment on different cell lines is listed as “can be effective in preventing different cell lines from death”.

B1: baculovirus p35: apoptosis inhibitor, baculovirus p35, expressed in CHO cells from p35/CPC construct (protein, UniProt P08160 1-299, looked up)
Early 35 kDa protein: MCVIFPVEIDVSQTIIRDCQVDKQTRELVYINKIMNTQLTKPVLMMFNISGPIRSVTRKNNNLRDRIKSKVDEQFDQLERDYSDQMDGFHDSIKYFKDEHYSVSCQNGSVLKSKFAKILKSHDYTDKKSIEAYEKYCLPKLVDERNDYYVAVCVLKPGFENGSNQVLSFEYNPIGNKVIVPFAHEINDTGLYEYDVVAYVDSVQFDGEQFEEFVQSLILPSSFKNSEKVLYYNEASKNKSMIYKALEFTTESSWGKSEKYNWKIFCNGFIYDKKSKVLYVKLHNVTSALNKNVILNTIK
On to B1, for which the “viability in the bioreactor” value with CHO (dhfr+) cells [3] is “prolongation of viability”.

The values above are taken from patent publication US6586206B1, “Methods for making recombinant proteins using apoptosis inhibitors” (priority 1999, dated 2003).
